US4493830A, “Method for the treatment of idiopathic headache attacks, in particular migraine and cluster headache” (Istituto Farmacologico Serono of Rome, priority 1983, dated 1985)
Where a name gives a salt, the structure may show the parent alone.

Test system: cluster headache attacks
Experiment: Double-blind randomized trial of treatment of cluster headache attacks in hospitalized patients
Type: in vivo
Method: Six consenting patients, suffering from cluster headache, were hospitalized. Two presented with a chronic state (more than one year) while the other four were in an attack stage at the moment of entering hospital. The patients received no other pharmaceuticals during the four days prior to commencing the study.
In each patient attacks lasted an average of 1-2 hours.
At the beginning of the attack, 10 minutes after the onset of pain, the patients received one of the following treatments:
500 mcg Somatostatin in 50 ml physiological solution, i.v.;
1 ml physiological solution i.m.;
50 ml physiological solution i.v.;
250 mcg Ergotamine Tartrate in 1 ml physiological solution i.m.
Duration of venous infusion was 20 minutes (50 drops per min.), and was started simultaneously with the i.m. injection. Treatments and patients were randomized and the trial was carried out in double blind.
In total, 9 attacks were treated for each patient, who received treatments (a) (b) or (c) 3 times; in this way, each treatment was used 18 times.
Pain intensity was ascertained every 10 minutes on a visible scale. Values were recorded on the ordinate against the time which was recorded on the abscissa.
3 parameters were used for statistical assessment; maximum intensity of pain expressed in arbitrary units; duration of pain expressed in minutes; area below the curve expressed in arbitrary units. During infusion with Somatostatin, blood pressure and pulse rates were recorded every 10 minutes for an hour.

[1] = versus physiological solution, Somatostatin 500 mcg i.v. infusion or Ergotamine Tartrate 250 mcg i.m.

Compound | Variations in blood pressure or pulse rates during infusion (500 mcg i.v. infusion, recorded every 10 minutes for an hour) | Incidence of side-effects as compared with Ergotamine (human, in vivo) | Reduction of pain duration as compared with placebo (Somatostatin 500 mcg i.v. infusion or Ergotamine Tartrate 250 mcg i.m.) [%] | Maximum pain intensity (Somatostatin 500 mcg i.v. infusion or Ergotamine Tartrate 250 mcg i.m., physiological solution 7.1±0.3) [arbitrary units] | Area under the pain curve (Somatostatin 500 mcg i.v. infusion or Ergotamine Tartrate 250 mcg i.m., physiological solution 43.8±6.2) [arbitrary units] | Duration of pain (cluster headache patients, Somatostatin 500 mcg i.v. infusion over 20 min or Ergotamine Tartrate 250 mcg i.m., 18 attacks per treatment, physiological solution 93±10) [min] | Reduction of maximum pain intensity [1] [%] | Reduction of the pain area [1] [%]
C[C@H](N)C(=O)NCC(=O)N[C@H]1CSSC[C@@H](C(=O)O)NC(=O)[C@H](CO)NC(=O)[C@H]([C@@H](C)O)NC(=O)[C@H](Cc2ccccc2)NC(=O)[C@H]([C@@H](C)O)NC(=O)[C@H](CCCCN)NC(=O)[C@H](Cc2c[nH]c3ccccc23)NC(=O)[C@H](Cc2ccccc2)NC(=O)[C@H](Cc2ccccc2)NC(=O)[C@H](CC(N)=O)NC(=O)[C@H](CCCCN)NC1=O [Somatostatin] | nor were there significant variations | minor incidence of side-effects |  |  |  |  |  | 
CN1C[C@H](C(=O)N[C@]2(C)O[C@@]3(O)[C@@H]4CCCN4C(=O)[C@H](Cc4ccccc4)N3C2=O)C=C2c3cccc4[nH]cc(c34)C[C@H]21 [Ergotamine, Ergotamine Tartrate] |  |  | 41 | 6.2±0.3 | 23.3±3.1 | 55 ± 8 | 13 | 47
